The values that follow come from patent US20180148418A1, “AMIDO-SUBSTITUTED CYCLOHEXANE DERIVATIVES” (Bayer Pharma Aktiengesellschaft, priority 2015, published 2018).

SMILES strings stand for the structures. Bounds are passed on as bounds.

This assay addresses T1, TNKS1 (Homo sapiens, UniProt O95271).
T1 construct: purchased BPS Bioscience, San Diego, USA 80579 (TNKS1 Histone Ribosylation Assay Kit)
T1 sequence (O95271 1-1327): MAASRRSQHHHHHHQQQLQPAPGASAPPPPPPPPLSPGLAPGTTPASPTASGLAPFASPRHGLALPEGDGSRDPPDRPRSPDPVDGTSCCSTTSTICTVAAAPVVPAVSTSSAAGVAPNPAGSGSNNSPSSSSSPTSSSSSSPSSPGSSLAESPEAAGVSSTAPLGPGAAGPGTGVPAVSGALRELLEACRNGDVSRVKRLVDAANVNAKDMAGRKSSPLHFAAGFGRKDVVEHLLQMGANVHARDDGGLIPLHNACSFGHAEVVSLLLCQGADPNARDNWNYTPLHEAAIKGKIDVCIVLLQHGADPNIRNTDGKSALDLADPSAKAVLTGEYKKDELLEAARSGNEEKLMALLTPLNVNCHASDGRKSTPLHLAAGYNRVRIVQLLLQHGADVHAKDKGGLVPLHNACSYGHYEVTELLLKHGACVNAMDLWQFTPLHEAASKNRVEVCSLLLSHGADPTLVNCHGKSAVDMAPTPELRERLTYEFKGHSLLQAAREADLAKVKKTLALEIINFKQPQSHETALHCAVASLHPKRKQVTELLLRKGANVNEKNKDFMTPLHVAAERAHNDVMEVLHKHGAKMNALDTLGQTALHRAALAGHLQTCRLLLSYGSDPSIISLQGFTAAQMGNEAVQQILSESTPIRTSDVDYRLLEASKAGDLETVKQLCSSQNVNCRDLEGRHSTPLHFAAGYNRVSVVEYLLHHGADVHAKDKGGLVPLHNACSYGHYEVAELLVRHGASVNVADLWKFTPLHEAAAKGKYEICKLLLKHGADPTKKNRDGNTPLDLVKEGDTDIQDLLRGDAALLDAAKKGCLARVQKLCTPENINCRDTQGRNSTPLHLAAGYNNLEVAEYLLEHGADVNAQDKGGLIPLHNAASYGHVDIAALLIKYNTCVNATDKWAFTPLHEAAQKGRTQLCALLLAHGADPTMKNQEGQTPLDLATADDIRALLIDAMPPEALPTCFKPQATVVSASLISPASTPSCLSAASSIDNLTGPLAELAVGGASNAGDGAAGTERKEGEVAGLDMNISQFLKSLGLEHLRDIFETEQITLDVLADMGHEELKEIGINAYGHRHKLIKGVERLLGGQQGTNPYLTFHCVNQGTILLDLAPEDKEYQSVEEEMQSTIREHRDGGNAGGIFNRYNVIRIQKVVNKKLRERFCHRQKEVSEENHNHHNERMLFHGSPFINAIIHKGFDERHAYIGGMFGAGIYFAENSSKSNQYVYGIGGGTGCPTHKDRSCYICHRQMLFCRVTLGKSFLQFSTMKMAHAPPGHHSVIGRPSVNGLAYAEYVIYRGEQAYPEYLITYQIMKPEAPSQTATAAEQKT
As to the kind of experiment: TNKS1 Assay B (auto-parsylation, [3H]-NAD+ SPA). It is filed as biochemical. To be noted: 6 nM TNKS1, auto-parsylation, over night at room temperature.

In the case of `Cc1cc(N2CC[C@]3(CC[C@@H](NC(=O)c4[nH]cnc4C(=O)NCC(F)(F)F)CC3)C2=O)c(Cl)cc1F` [Example 297, N^5-[(trans)-2-(2-chloro-4-fluoro-5-methylphenyl)-1-oxo-2-azaspiro[4.5]dec-8-yl]-N^4-(2,2,2-trifluoroethyl)-1H-imidazole-4,5-dicarboxamide], the IC50 (in general, the concentration needed to halve the response being measured) was determined as 10 nM. Regarding `O=C(N[C@H]1CC[C@@]2(CCN(c3cc(F)c(F)cc3Cl)C2=O)CC1)c1cnc2cccnn12` [Example 298, N-[(trans)-2-(2-chloro-4,5-difluorophenyl)-1-oxo-2-azaspiro[4.5]dec-8-yl]imidazo[1,2-b]pyridazine-3-carboxamide], half-maximal inhibition (IC50) was put at 6.1 nM. For the compound `Cc1cc(C)n2ncc(C(=O)N[C@H]3CC[C@@]4(CCN(c5cc(F)c(F)cc5Cl)C4=O)CC3)c2n1` [Example 299, N-[(trans)-2-(2-chloro-4,5-difluorophenyl)-1-oxo-2-azaspiro[4.5]dec-8-yl]-5,7-dimethylpyrazolo[1,5-a]pyrimidine-3-carboxamide], the IC50 turned out to be 7.1 nM. Take `Cc1cc(N2CCC[C@]3(CC[C@@H](NC(=O)c4cnn5cccnc45)CC3)C2=O)c(Cl)cc1F` [Example 300, N-[(trans)-2-(2-chloro-4-fluoro-5-methylphenyl)-1-oxo-2-azaspiro[5.5]undec-9-yl]pyrazolo[1,5-a]pyrimidine-3-carboxamide]: half-maximal inhibition (IC50) was put at 94 nM. This IC50 is about 13-fold higher than that of the compound before. In the case of `Cc1cc(N2CCC[C@]3(CC[C@@H](NC(=O)c4cnc5cccnn45)CC3)C2=O)c(Cl)cc1F` [Example 301, N-[(trans)-2-(2-chloro-4-fluoro-5-methylphenyl)-1-oxo-2-azaspiro[5.5]undec-9-yl]imidazo[1,2-b]pyridazine-3-carboxamide], the IC50 stood at 130 nM. The IC50 values of the last two compounds are within 1.5-fold of each other. The compound `Cc1cc(C)n2ncc(C(=O)N[C@H]3CC[C@@]4(CCCN(c5cc(C)c(F)cc5Cl)C4=O)CC3)c2n1` [Example 302, N-[(trans)-2-(2-chloro-4-fluoro-5-methylphenyl)-1-oxo-2-azaspiro[5.5]undec-9-yl]-5,7-dimethylpyrazolo[1,5-a]pyrimidine-3-carboxamide] had a concentration for half-maximal inhibition (IC50) of 170 nM. As for `COCCNC(=O)c1nc[nH]c1C(=O)N[C@H]1CC[C@@]2(CCN(c3cc(C)c(F)cc3Cl)C2=O)CC1` [Example 334, N^5-[(trans)-2-(2-chloro-4-fluoro-5-methylphenyl)-1-oxo-2-azaspiro[4.5]dec-8-yl]-N^4-(2-methoxyethyl)-1H-imidazole-4,5-dicarboxamide], the midpoint of inhibition, the IC50, lay at 12 nM. Compound `COC(=O)c1cc(C)nc2c(C(=O)N[C@H]3CC[C@H](C(=O)Nc4c(F)cc(F)cc4Cl)CC3)cnn12` [Example 351, methyl 3-({trans-4-[(2-chloro-4,6-difluorophenyl)carbamoyl]cyclohexyl}carbamoyl)-5-methylpyrazolo[1,5-a]pyrimidine-7-carboxylate] yielded an IC50 of 150 nM. As for `COC(=O)c1cc(C)nc2c(C(=O)N[C@H]3CC[C@H](C(=O)Nc4ccc(F)cc4Cl)CC3)cnn12` [Example 352, methyl 3-({trans-4-[(2-chloro-4-fluorophenyl)carbamoyl]cyclohexyl}carbamoyl)-5-methylpyrazolo[1,5-a]pyrimidine-7-carboxylate], the figure is 350 nM; as for `Cc1c(C(C)(C)O)cnc2c(C(=O)N[C@H]3CC[C@H](C(=O)Nc4ccc(F)cc4Cl)CC3)cnn12` [Example 359, N-{trans-4-[(2-chloro-4-fluorophenyl)carbamoyl]cyclohexyl}-6-(2-hydroxypropan-2-yl)-7-methylpyrazolo[1,5-a]pyrimidine-3-carboxamide], more than 10000 nM; as for `O=C(N[C@H]1CC[C@H](C(=O)Nc2ccc(F)cc2Cl)CC1)c1cnc2ccc(O)nn12` [Example 360, N-{trans-4-[(2-chloro-4-fluorophenyl)carbamoyl]cyclohexyl}-6-hydroxyimidazo[1,2-b]pyridazine-3-carboxamide], 2500 nM. As for `Cc1nc2c(C(=O)N[C@H]3CC[C@H](C(=O)Nc4c(F)cc(F)cc4Cl)CC3)cnn2c2c1CCC2` [Example 363, N-{trans-4-[(2-chloro-4,6-difluorophenyl)carbamoyl]cyclohexyl}-5-methyl-7,8-dihydro-6H-cyclopenta[e]pyrazolo[1,5-a]pyrimidine-3-carboxamide], the figure is 57 nM.
